Activity calls are given as the source filed them. No cut-off for these calls is given here.
Legend:
[1] = molecular target: Phosphatidylinositol 4,5-bisphosphate 3-kinase catalytic subunit beta isoform (Homo sapiens, UniProt P42338); test: Inhibition of PI3Kbeta (unknown origin) using PIP2 as substrate incubated for 1 hrs in presence of ATP by ADP-Glo kinase assay
CYP1A2 = CYP1A2 (Homo sapiens, UniProt P05177); test: Inhibition of CYP1A2 in human liver microsomes using phenacetin as substrate at 10 uM in presence of NADPH regenerating system by LC-MS/MS analysis relative to control; assay type: ADME, Microsome; details: probe phenacetin
CYP1A2, sequence (P05177 whole entry): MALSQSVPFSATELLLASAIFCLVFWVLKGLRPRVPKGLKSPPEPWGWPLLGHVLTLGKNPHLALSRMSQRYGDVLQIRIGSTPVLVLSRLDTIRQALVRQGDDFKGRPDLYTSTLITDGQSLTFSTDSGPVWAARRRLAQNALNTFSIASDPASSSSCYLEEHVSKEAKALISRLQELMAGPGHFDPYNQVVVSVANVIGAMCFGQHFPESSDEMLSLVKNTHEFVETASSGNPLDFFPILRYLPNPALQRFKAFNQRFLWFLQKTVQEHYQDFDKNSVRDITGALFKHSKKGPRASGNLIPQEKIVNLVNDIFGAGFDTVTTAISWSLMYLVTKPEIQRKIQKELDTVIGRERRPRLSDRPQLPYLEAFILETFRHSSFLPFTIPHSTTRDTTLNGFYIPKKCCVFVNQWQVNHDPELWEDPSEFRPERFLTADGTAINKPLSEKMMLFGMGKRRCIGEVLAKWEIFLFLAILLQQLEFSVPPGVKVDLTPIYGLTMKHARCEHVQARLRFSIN

Histone deacetylase 2 = Histone deacetylase 2 (Homo sapiens, UniProt Q92769); test: Inhibition of HDAC2 (unknown origin) using Boc-Lys(acetyl)-AMC as substrate preincubated for 1 hrs followed by substrate addition and measured after 2 hrs by spectrophotometer based fluorometric assay
Histone deacetylase 2, sequence (Q92769 whole entry): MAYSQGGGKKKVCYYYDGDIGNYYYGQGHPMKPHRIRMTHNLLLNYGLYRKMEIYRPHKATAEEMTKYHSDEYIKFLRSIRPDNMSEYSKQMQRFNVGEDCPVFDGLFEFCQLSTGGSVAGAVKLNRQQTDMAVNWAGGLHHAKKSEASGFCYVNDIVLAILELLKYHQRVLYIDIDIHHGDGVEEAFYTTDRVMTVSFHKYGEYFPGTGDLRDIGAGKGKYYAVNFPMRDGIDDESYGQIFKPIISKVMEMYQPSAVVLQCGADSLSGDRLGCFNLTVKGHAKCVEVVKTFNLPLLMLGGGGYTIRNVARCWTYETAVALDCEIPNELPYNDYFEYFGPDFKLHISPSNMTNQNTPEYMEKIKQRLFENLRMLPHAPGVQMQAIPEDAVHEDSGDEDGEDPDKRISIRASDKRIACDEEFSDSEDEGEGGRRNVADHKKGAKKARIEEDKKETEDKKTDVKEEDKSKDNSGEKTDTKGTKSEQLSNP

Histone deacetylase 4 = Histone deacetylase 4 (Homo sapiens, UniProt P56524); test: Inhibition of HDAC4 (unknown origin) using Boc-Lys(acetyl)-AMC as substrate preincubated for 1 hrs followed by substrate addition and measured after 2 hrs by spectrophotometer based fluorometric assay
[2] = molecular target: Polyamine deacetylase HDAC10 (Homo sapiens, UniProt Q969S8); test: Inhibition of HDAC10 (unknown origin) using Boc-Lys(acetyl)-AMC as substrate preincubated for 1 hrs followed by substrate addition and measured after 2 hrs by spectrophotometer based fluorometric assay
Polyamine deacetylase HDAC10, sequence (Q969S8 whole entry, canonical isoform): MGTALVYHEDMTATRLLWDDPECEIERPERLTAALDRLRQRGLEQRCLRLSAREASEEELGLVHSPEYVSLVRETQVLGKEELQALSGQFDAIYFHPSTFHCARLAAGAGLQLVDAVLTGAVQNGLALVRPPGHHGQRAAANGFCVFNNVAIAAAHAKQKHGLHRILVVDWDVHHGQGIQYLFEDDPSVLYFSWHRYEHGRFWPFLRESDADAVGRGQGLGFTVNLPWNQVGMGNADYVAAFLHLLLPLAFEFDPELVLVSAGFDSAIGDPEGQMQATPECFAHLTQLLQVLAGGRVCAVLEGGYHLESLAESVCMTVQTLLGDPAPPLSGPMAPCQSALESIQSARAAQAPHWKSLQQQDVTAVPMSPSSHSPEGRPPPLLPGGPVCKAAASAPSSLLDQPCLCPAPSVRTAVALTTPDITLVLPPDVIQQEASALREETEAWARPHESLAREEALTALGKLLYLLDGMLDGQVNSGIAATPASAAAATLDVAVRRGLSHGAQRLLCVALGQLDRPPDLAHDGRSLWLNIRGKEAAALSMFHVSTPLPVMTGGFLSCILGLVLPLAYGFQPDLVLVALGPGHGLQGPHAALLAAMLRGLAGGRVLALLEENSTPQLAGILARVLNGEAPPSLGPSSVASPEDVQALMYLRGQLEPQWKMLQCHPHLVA

[3] = molecular target: Phosphatidylinositol 4,5-bisphosphate 3-kinase catalytic subunit delta isoform (Homo sapiens, UniProt O00329); test: Inhibition of PI3Kdelta (unknown origin) using PIP2 as substrate incubated for 1 hrs in presence of ATP by ADP-Glo kinase assay
Phosphatidylinositol 4,5-bisphosphate 3-kinase catalytic subunit delta isoform, sequence (O00329 whole entry, canonical isoform): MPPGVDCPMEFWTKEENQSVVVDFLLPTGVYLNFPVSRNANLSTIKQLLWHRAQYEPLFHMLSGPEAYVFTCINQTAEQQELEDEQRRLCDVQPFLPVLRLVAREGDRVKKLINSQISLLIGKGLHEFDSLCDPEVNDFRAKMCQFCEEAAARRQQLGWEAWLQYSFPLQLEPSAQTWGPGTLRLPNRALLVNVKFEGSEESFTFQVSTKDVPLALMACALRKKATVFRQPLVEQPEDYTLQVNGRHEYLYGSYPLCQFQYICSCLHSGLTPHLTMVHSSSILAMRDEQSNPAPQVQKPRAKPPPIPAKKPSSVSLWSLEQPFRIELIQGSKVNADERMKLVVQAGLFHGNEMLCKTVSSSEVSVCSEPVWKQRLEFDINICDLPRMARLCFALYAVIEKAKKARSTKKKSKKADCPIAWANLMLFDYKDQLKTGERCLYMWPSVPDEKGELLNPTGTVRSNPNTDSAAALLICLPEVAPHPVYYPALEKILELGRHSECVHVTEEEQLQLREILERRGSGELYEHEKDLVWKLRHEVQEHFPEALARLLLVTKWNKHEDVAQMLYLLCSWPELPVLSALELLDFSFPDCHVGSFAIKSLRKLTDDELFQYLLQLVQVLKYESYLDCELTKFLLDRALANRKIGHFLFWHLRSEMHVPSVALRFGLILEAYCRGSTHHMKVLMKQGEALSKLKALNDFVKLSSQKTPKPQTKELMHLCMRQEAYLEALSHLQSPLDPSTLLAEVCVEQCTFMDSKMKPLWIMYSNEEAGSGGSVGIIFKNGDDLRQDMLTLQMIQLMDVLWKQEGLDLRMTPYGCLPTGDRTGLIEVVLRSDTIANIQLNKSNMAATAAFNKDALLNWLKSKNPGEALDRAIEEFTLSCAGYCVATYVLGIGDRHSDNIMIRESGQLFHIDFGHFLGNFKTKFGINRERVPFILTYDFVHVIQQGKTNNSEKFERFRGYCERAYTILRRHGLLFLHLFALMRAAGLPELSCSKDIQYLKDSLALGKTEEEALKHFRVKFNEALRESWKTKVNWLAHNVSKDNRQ

[4] = molecular target: Phosphatidylinositol 4,5-bisphosphate 3-kinase catalytic subunit gamma isoform (Homo sapiens, UniProt P48736); test: Inhibition of PI3Kgamma (unknown origin) using PIP2 as substrate incubated for 1 hrs in presence of ATP by ADP-Glo kinase assay
Phosphatidylinositol 4,5-bisphosphate 3-kinase catalytic subunit gamma isoform, sequence (P48736 whole entry, canonical isoform): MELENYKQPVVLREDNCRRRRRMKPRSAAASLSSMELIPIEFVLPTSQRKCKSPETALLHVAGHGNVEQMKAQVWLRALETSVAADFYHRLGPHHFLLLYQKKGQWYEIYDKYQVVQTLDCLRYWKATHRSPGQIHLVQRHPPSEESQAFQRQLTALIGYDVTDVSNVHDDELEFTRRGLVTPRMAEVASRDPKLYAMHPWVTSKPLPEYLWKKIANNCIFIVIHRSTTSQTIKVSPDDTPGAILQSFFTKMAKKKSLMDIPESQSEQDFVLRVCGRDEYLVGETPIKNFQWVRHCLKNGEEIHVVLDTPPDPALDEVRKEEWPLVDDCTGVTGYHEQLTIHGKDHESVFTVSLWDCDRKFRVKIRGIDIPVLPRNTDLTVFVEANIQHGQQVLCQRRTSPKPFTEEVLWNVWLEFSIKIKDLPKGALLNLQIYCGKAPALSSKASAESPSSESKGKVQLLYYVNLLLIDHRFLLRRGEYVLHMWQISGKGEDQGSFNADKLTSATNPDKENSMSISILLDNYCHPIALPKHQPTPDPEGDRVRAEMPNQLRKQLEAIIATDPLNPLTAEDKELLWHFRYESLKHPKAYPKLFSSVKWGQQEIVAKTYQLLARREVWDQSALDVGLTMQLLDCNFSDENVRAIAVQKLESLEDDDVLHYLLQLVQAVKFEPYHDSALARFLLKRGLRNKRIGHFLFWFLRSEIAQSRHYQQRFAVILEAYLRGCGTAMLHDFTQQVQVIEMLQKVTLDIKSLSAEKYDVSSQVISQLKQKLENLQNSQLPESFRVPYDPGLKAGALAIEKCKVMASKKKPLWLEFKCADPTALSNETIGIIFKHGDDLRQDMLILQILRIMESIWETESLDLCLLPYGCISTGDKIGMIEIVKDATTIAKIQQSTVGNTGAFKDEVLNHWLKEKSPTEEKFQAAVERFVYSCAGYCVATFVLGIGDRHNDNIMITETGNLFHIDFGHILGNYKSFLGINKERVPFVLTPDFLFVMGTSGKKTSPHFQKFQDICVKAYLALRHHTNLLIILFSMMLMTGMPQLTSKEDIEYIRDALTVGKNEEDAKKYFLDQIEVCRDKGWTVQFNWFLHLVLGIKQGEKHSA

HL-60 = test: Antiproliferative activity against human HL-60 cells incubated for 48 hrs by resazurin dye based fluorescence micro plate reader analysis; assay type: functional, cell-based; details: HL-60, 48 h
JeKo-1 [5] = test: Potency index, ratio of CI994 IC50 to test compound IC50 for antiproliferative activity against human JeKo-1 cells incubated for 48 hrs by resazurin based fluorescence microplate reader analysis; assay type: functional
JeKo-1 [6] = test: Potency index, ratio of 4-(3-(4-(4-methoxy-6-morpholino-1,3,5-triazin-2-yl)phenyl)urea)-N-(2-ethylamino)ethylbenzamide IC50 to test compound IC50 for antiproliferative activity against human JeKo-1 cells incubated for 48 hrs by resazurin based fluorescence microplate reader analysis; assay type: functional
[7] = Stability in human liver microsomes assessed as compound remaining at […] preincubated for 5 mins followed by NADPH addition and measured immediately by LC-MS/MS analysis; assay type: ADME, Microsome; details: read-out: Stability
[8] = Stability in human liver microsomes assessed as compound remaining at […] preincubated for 5 mins followed by NADPH addition and measured after 5 mins by LC-MS/MS analysis; assay type: ADME, Microsome; details: time 10 min, read-out: Stability
[9] = Stability in human liver microsomes assessed as compound remaining at […] preincubated for 5 mins followed by NADPH addition and measured after 15 mins by LC-MS/MS analysis; assay type: ADME, Microsome; details: time 20 min, read-out: Stability
[10] = Stability in rat liver microsomes assessed as compound remaining at […] preincubated for 5 mins followed by NADPH addition and measured after 30 mins by LC-MS/MS analysis; assay type: ADME, Microsome; details: time 35 min, read-out: Stability
[11] = Stability in mouse liver microsomes assessed as compound remaining at 0.5 mM preincubated for 5 mins followed by NADPH addition and measured immediately by LC-MS/MS analysis; assay type: ADME, Microsome; details: read-out: Stability
[12] = Stability in mouse liver microsomes assessed as compound remaining at […] preincubated for 5 mins followed by NADPH addition and measured after 15 mins by LC-MS/MS analysis; assay type: ADME, Microsome; details: time 20 min, read-out: Stability
[13] = Stability in mouse liver microsomes assessed as compound remaining at […] preincubated for 5 mins followed by NADPH addition and measured after 30 mins by LC-MS/MS analysis; assay type: ADME, Microsome; details: time 35 min, read-out: Stability
[14] = Stability in human liver microsomes assessed as half-life at […] preincubated for 5 mins followed by NADPH addition and measured upto 45 mins by LC-MS/MS analysis; assay type: ADME, Microsome; details: time < 50 min
[15] = C0 in ICR mouse at 1 mg/kg, iv measured after 24 hrs by LC-MS/MS analysis; assay type: ADME, organism-based; details: in vivo
[16] = AUC (0 to t) in ICR mouse at 1 mg/kg, iv measured after 24 hrs by LC-MS/MS analysis; assay type: ADME, organism-based; details: in vivo
[17] = AUC (0 to infinity) in ICR mouse at 1 mg/kg, iv measured after 24 hrs by LC-MS/MS analysis; assay type: ADME, organism-based; details: in vivo
[18] = MRT (0 to infinity) in ICR mouse at 1 mg/kg, iv measured after 24 hrs by LC-MS/MS analysis; assay type: ADME, organism-based; details: in vivo
[19] = Volume of distribution at steady state in ICR mouse at 1 mg/kg, iv measured after 24 hrs by LC-MS/MS analysis; assay type: ADME, organism-based; details: in vivo
[20] = Clearance in ICR mouse at 1 mg/kg, iv measured after 24 hrs by LC-MS/MS analysis; assay type: ADME, organism-based; details: in vivo
JeKo-1 [21] = test: Induction of apoptosis in human JeKo-1 cells assessed as early apoptotic cells at 0.25 uM incubated for 48 hrs by Annexin-V/FITC and PI staining based flow cytometric analysis (reference value: […]); assay type: functional
JeKo-1 [22] = test: Induction of apoptosis in human JeKo-1 cells assessed as late apoptotic cells at 0.25 uM incubated for 48 hrs by Annexin-V/FITC and PI staining based flow cytometric analysis (reference value: 3.66%); assay type: functional
JeKo-1 [23] = test: Induction of apoptosis in human JeKo-1 cells assessed as necrotic cells at 0.25 uM incubated for 48 hrs by Annexin-V/FITC and PI staining based flow cytometric analysis (reference value: 1.05%); assay type: functional
JeKo-1 [24] = test: Induction of apoptosis in human JeKo-1 cells assessed as late apoptotic cells at 0.5 uM incubated for 48 hrs by Annexin-V/FITC and PI staining based flow cytometric analysis (reference value: 3.66%); assay type: functional
JeKo-1 [25] = test: Induction of apoptosis in human JeKo-1 cells assessed as late apoptotic cells at 1 uM incubated for 48 hrs by Annexin-V/FITC and PI staining based flow cytometric analysis (reference value: 3.66%); assay type: functional
JeKo-1 [26] = test: Induction of apoptosis in human JeKo-1 cells assessed as necrotic cells at 1 uM incubated for 48 hrs by Annexin-V/FITC and PI staining based flow cytometric analysis (reference value: 1.05%); assay type: functional
[27] = Inhibition of PI3K/AKT/mTOR signaling in human JeKo-1 cells assessed as decrease in AKT phosphorylation at S473 residue at 0.25 uM incubated for 24 hrs by Western blot analysis; assay type: cell-based
JeKo-1 [28] = test: Effect on total AKT protein level in human JeKo-1 cells at 0.25 uM incubated for 24 hrs by Western blot analysis; assay type: functional, cell-based
JeKo-1 [29] = test: Upregulation of tubulin acetylation in human JeKo-1 cells at 0.25 to 1 uM incubated for 24 hrs by Western blot analysis; assay type: functional, cell-based; details: dose 0.25-1 µM

Phosphatidylinositol 4,5-bisphosphate 3-kinase catalytic subunit beta isoform, sequence (P42338 whole entry, canonical isoform): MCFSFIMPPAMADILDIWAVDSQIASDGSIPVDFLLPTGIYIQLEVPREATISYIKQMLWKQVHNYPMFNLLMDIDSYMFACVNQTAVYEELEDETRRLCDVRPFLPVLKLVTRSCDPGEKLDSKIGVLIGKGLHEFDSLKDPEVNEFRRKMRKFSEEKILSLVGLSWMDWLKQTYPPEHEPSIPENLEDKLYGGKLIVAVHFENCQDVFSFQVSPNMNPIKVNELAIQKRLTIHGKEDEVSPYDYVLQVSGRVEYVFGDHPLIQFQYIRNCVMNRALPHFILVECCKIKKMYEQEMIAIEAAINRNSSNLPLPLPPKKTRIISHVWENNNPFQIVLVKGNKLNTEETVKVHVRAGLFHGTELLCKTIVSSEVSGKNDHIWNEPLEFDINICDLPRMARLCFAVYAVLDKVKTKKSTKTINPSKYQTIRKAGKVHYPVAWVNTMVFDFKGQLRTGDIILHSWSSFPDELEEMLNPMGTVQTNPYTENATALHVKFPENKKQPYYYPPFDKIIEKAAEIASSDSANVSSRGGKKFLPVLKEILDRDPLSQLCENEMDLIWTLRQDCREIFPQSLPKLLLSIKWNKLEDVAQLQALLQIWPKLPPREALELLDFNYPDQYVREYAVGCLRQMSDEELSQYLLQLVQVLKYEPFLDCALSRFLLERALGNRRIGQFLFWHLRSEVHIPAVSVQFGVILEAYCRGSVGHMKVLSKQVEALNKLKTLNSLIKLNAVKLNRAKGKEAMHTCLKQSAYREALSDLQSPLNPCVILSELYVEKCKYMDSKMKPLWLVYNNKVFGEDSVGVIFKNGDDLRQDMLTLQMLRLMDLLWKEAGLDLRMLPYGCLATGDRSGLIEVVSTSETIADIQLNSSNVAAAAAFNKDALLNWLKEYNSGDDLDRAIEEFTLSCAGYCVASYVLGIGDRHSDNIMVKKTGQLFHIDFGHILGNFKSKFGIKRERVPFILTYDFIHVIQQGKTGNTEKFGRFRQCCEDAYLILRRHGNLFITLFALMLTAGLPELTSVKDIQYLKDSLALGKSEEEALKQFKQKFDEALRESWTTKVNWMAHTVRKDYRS

SMILES: COc1nc(-c2ccc(NC(=O)Nc3ccc(C(=O)NCCCCCC(=O)Nc4ccccc4N)cc3)cc2)nc(N2CCOCC2)n1
- IC50 [1]: 29.5 nM
- inhibition at 10 µM (CYP1A2): 2.52%
- IC50 (Histone deacetylase 2): 443 nM
- IC50 (Histone deacetylase 4): > 10000 nM
- IC50 [2]: > 10000 nM
- IC50 [3]: 206 nM
- IC50 [4]: 95.4 nM
- IC50 (HL-60): 900 nM
- Ratio IC50 (JeKo-1 [5]): 2
- Ratio IC50 (JeKo-1 [6]): 2
- remaining at 0 min [7]: 100%
- remaining at 5 min [8]: 83.8%
- remaining at 0.25 h [9]: 62.6%
- remaining at 0.5 h [10]: 46.9%
- remaining at 0 min [11]: 100%
- remaining at 0.25 h [12]: 65.8%
- remaining at 0.5 h [13]: 45%
- half-life [14]: 0.515 h
- C0 at 24 h [15]: 13700 ng/mL
- AUC(0-t) at 24 h [16]: 2700 ng·h/mL
- AUC(0-inf) [17]: 2770 ng·h/mL
- MRT inf [18]: 2 h
- Vdss [19]: 0.719 L/kg
- clearance [20]: 6.02 mL/min/kg
- Activity (JeKo-1 [21]): 5.73%
- Activity (JeKo-1 [22]): 15.1%
- Activity (JeKo-1 [23]): 0.85%
- Activity (JeKo-1 [24]): 32.9%
- Activity (JeKo-1 [25]): 70.4%
- Activity (JeKo-1 [26]): 0.17%
- inhibition [27]: Active
- Activity (JeKo-1 [28]): inactive
- Activity (JeKo-1 [29]): inactive

From ChEMBL document CHEMBL5634161, “Discovery of benzamide-based PI3K/HDAC dual inhibitors with marked pro-apoptosis activity in lymphoma cells” (Eur J Med Chem, 2023)
